In the NIST ThermoML archive (doi:10.1016/j.jct.2019.01.021):

Assay: molar heat capacity at constant pressure
Details: 101.33 kPa, Crystal 2, Small (less than 1 g) adiabatic calorimetry

N.NS(=O)(=O)O [ammonium sulfamate]
Details | molar heat capacity at constant pressure [J/K/mol]
5 K | 0.003159
8.91 K | 0.2228
9.15 K | 0.2561
9.62 K | 0.3293
9.86 K | 0.3608
10 K | 0.3908
10.36 K | 0.4664
10.69 K | 0.5138
11.01 K | 0.5995
11.34 K | 0.6668
11.67 K | 0.7466
12.01 K | 0.8356
12.34 K | 0.9262
12.68 K | 1.013
13.01 K | 1.113
13.35 K | 1.229
13.69 K | 1.347
14.03 K | 1.465
14.37 K | 1.586
14.72 K | 1.72
15 K | 1.837
15.07 K | 1.857
15.42 K | 2
15.76 K | 2.155
16.11 K | 2.332
16.47 K | 2.484
16.82 K | 2.64
17.17 K | 2.83
17.52 K | 3.021
17.88 K | 3.204
18.24 K | 3.395
18.59 K | 3.592
18.95 K | 3.806
19.31 K | 4.033
19.67 K | 4.25
20 K | 4.407
20.03 K | 4.465
20.61 K | 4.831
21.36 K | 5.306
22.1 K | 5.824
22.85 K | 6.364
23.61 K | 6.908
24.36 K | 7.492
25 K | 7.982
25.12 K | 8.117
25.88 K | 8.748
26.65 K | 9.316
27.42 K | 9.947
28.19 K | 10.61
28.96 K | 11.3
29.73 K | 11.97
30 K | 12.22
30.51 K | 12.68
31.29 K | 13.41
32.06 K | 14.11
32.85 K | 14.85
33.63 K | 15.59
34.41 K | 16.31
35 K | 16.88
35.2 K | 17.03
35.98 K | 17.81
36.77 K | 18.53
37.56 K | 19.25
38.35 K | 19.96
39.14 K | 20.7
39.93 K | 21.44
40 K | 21.53
40.72 K | 22.21
41.51 K | 22.95
42.31 K | 23.72
43.1 K | 24.46
43.9 K | 25.22
44.69 K | 26
45 K | 26.19
45.49 K | 26.74
46.29 K | 27.42
47.09 K | 28.16
47.88 K | 28.92
48.68 K | 29.58
49.48 K | 30.31
50 K | 30.85
50.28 K | 31.01
51.08 K | 31.75
51.88 K | 32.46
52.68 K | 33.24
53.48 K | 34.09
54.28 K | 34.9
55 K | 35.75
55.08 K | 35.75
55.89 K | 36.24
56.69 K | 36.94
57.49 K | 37.64
58.29 K | 38.37
59.1 K | 39.05
59.91 K | 39.76
60 K | 39.91
60.71 K | 40.47
61.52 K | 41.17
62.32 K | 42.03
63.12 K | 42.86
63.92 K | 43.55
64.73 K | 44.16
65 K | 44.07
65.54 K | 44.89
66.34 K | 45.53
67.15 K | 46.21
67.95 K | 46.89
68.76 K | 47.59
69.57 K | 48.3
70 K | 49.06
70.38 K | 49.01
71.3 K | 49.73
72.35 K | 50.64
73.39 K | 51.54
74.44 K | 52.48
75 K | 53.21
75.48 K | 53.43
76.53 K | 54.35
77.58 K | 55.24
78.62 K | 56.18
79.67 K | 57.12
79.91 K | 57.2
80 K | 57.37
80.72 K | 58.02
80.96 K | 58.19
81.77 K | 58.95
82.01 K | 59.07
82.82 K | 59.87
83.05 K | 59.96
83.87 K | 60.82
84.1 K | 60.91
84.92 K | 61.73
85.15 K | 61.78
86.2 K | 62.6
87.24 K | 63.53
88.29 K | 64.43
89.34 K | 65.22
90 K | 65.68
90.39 K | 66.05
91.44 K | 66.98
92.49 K | 67.83
93.54 K | 68.65
94.59 K | 69.45
95.65 K | 70.24
96.7 K | 71.12
97.75 K | 71.89
98.8 K | 72.7
99.86 K | 73.47
100 K | 73.33
100.91 K | 74.3
101.96 K | 75.09
103.01 K | 75.85
104.06 K | 76.59
105.11 K | 77.34
106.16 K | 78.13
107.21 K | 78.85
108.26 K | 79.53
109.31 K | 80.3
110 K | 80.4
110.37 K | 80.98
111.42 K | 81.71
112.47 K | 82.4
113.53 K | 83.05
114.58 K | 83.71
115.63 K | 84.43
116.68 K | 85.1
117.74 K | 85.75
118.79 K | 86.44
119.84 K | 87.02
120 K | 86.89
120.9 K | 87.68
121.95 K | 88.37
123 K | 88.95
124.05 K | 89.55
125.11 K | 90.12
126.16 K | 90.78
127.21 K | 91.36
128.27 K | 92.02
129.32 K | 92.56
130 K | 92.71
130.38 K | 93.15
131.43 K | 93.76
132.49 K | 94.31
133.54 K | 94.78
134.59 K | 95.43
135.65 K | 95.99
136.7 K | 96.5
137.76 K | 97.01
138.81 K | 97.53
139.87 K | 98.13
140 K | 98.03
140.92 K | 98.63
141.97 K | 99.21
143.03 K | 99.69
144.09 K | 100.16
145.14 K | 100.67
146.2 K | 101.12
147.25 K | 101.64
148.31 K | 102.18
149.36 K | 102.59
150 K | 102.85
150.42 K | 103.11
151.47 K | 103.62
152.53 K | 104.13
153.58 K | 104.47
154.64 K | 105.04
155.69 K | 105.57
156.75 K | 105.98
157.8 K | 106.39
158.86 K | 106.87
159.91 K | 107.31
160 K | 107.34
160.97 K | 107.74
162.02 K | 108.15
163.08 K | 108.69
164.13 K | 109.09
165.19 K | 109.46
166.24 K | 109.98
167.3 K | 110.42
168.35 K | 110.83
169.41 K | 111.19
170 K | 111.5
170.46 K | 111.64
171.51 K | 112.13
172.57 K | 112.44
173.62 K | 112.78
174.67 K | 113.21
175.73 K | 113.67
176.78 K | 114.15
177.84 K | 114.52
178.89 K | 114.89
179.94 K | 115.32
180 K | 115.4
181 K | 115.71
182.05 K | 116.14
183.1 K | 116.41
184.16 K | 116.84
185.21 K | 117.3
186.26 K | 117.56
